ChEMBL document CHEMBL3352625, “Development of novel neurokinin 3 receptor (NK3R) selective agonists with resistance to proteolytic degradation” (J Med Chem, 2014)
Active and inactive are the calls of the source. No cut-off for these calls is given here. *1 amine or outer side, *2 acyl side, *3 side chain or, on linkers, in order; H or OH if unused. Where a SMILES comes first, the peptide text is derived from it. [ ]: non-standard residue; d: D form. Glyψ(E-CHCH)Leu = CC(C)C[C@H](/C=C/CN[*:1])C(=O)[*:2]; X4 = CC(C)C[C@H](N/C(CN[*:1])=N\O)C(=O)[*:2]; X3 = CC(C)C[C@H](NC(=N)CN[*:1])C(=O)[*:2]; X1 = CC(C)C[C@H](CCCN[*:1])C(=O)[*:2]; X2 = CC(C)C/C(=C\CCN[*:1])C(=O)[*:2]; NMeF = CN[C@@H](Cc1ccccc1)C(=O)O; Suc = O=C(CCC(=O)[*:2])[*:1]

Tests used:
[1] = biological target: T1, Neuromedin-K receptor (Homo sapiens, UniProt P29371); experiment: Displacement of [125I]His3, MePhe7 from human NK3R expressed in CHO cell membranes by scintillation counting
T1 sequence (P29371 whole entry): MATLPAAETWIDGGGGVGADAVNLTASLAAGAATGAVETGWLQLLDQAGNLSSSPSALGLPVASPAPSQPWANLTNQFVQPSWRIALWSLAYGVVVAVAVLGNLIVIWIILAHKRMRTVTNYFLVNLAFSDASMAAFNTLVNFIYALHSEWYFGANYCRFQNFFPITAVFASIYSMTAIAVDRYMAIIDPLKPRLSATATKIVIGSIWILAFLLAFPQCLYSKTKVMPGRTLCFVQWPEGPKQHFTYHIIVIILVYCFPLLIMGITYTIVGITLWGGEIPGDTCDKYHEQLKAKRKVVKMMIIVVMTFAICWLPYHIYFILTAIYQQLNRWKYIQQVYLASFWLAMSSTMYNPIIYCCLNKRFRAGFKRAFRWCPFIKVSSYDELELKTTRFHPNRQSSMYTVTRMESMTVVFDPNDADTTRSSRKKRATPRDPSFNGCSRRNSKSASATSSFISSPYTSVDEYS

[2] = biological target: T1, Neuromedin-K receptor; experiment: (§1) Agonist activity at human NK3R expressed in CHO cells assessed as induction of Ca2+ influx […]; format: functional, cell-based
[3] = biological target: T2, Substance-K receptor (Homo sapiens) (UniProt P21452); experiment: Displacement of [125I]-NKA from […] expressed in CHO cell membranes at 10 uM by scintillation counting
T2 sequence (whole entry): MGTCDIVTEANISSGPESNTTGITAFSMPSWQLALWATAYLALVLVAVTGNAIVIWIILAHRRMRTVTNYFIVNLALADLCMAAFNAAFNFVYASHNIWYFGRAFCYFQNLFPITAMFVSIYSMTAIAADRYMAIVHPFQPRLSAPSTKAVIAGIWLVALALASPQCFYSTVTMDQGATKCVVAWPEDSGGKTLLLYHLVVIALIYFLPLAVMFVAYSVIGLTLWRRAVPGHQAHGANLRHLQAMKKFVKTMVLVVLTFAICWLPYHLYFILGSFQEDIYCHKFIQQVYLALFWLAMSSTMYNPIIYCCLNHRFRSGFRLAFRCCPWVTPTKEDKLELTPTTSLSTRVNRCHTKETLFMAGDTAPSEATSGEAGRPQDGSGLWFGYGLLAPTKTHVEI

[4] = biological target: Substance-P receptor (Homo sapiens) (UniProt P25103); experiment: Displacement of [125I]-BH-SP from human NK1R expressed in CHO cell membranes at 10 uM by scintillation counting
[5] = biological target: T3, Neuromedin-K receptor (Homo sapiens) (UniProt P29371); experiment: as §1; format: functional, cell-based
T3 sequence (whole entry): T1 sequence (P29371 whole entry)

[6] = Induction of GnRH release in ovariectomized goat assessed as induction of multiple-unit activity volley measured as duration of effect at 200 nmol, iv as single dose; format: functional, Capra hircus
[7] = Agonist activity at cattle NK3R; parameters: species or system Bos taurus
[8] = biological target: T4, Neuromedin-K receptor (Rattus norvegicus, UniProt P16177); experiment: Agonist activity at rat NK3R
T4 sequence (P16177 whole entry): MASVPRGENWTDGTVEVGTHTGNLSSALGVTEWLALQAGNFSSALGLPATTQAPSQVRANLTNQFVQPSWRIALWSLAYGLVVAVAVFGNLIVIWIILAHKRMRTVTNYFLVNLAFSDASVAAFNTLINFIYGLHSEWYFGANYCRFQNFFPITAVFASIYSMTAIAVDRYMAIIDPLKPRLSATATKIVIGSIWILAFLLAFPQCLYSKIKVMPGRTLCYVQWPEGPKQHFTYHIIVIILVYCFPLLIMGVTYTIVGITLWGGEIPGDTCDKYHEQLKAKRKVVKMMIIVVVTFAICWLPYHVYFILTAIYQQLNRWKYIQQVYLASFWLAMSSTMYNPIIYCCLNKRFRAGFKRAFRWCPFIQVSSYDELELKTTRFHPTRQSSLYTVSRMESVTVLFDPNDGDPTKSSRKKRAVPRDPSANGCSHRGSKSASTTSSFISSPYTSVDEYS

[9] = Agonist activity at goat NK3R; parameters: species or system Capra hircus
[10] = biological target: T1, Neuromedin-K receptor; experiment: Agonist activity at human NK3R expressed in CHO cells assessed as potentiation of senktide-induced effect; format: cell-based

Sequence of Substance-P receptor (Homo sapiens) (P25103 whole entry): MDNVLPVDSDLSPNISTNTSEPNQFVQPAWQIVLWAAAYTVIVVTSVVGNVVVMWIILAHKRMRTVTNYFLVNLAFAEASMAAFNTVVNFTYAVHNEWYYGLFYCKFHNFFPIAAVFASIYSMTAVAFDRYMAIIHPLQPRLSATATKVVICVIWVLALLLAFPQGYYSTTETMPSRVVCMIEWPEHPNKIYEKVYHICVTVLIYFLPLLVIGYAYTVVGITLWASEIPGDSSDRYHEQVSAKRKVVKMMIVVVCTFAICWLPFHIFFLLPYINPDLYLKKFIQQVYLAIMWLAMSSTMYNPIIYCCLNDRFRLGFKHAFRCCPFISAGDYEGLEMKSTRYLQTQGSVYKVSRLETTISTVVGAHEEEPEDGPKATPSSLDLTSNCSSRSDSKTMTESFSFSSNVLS

Row | Structure (SMILES) | IC50 [1] [nM] | EC50 [10] [nM] | other results
1 | CN(C(=O)[C@@H](N)Cc1ccccc1)[C@@H](Cc1ccccc1)C(=O)NCC(=O)O (H-Phe-[NMeF]-Gly-OH) | – | – | EC50 [2]: > 100000 nM
2 | CN(C(=O)[C@H](Cc1ccccc1)NC(=O)[C@H](CC(=O)O)NC(=O)CCC(=O)O)[C@@H](Cc1ccccc1)C(=O)NCC(=O)O (Suc-DF[NMeF]G-OH) | – | – | Activity [5]: inactive
3 | CSCC[C@H](NC(=O)[C@@H](CCCNC(=O)[C@H](Cc1ccccc1)N(C)C(=O)[C@H](Cc1ccccc1)NC(=O)[C@H](CC(=O)O)NC(=O)CCC(=O)O)CC(C)C)C(N)=O (Suc-DF[NMeF][X1]M-NH2) | 19000 | 920 | –
4 | CSCC[C@H](NC(=O)[C@H](CC(C)C)NC(=N)CNC(=O)[C@H](Cc1ccccc1)N(C)C(=O)[C@H](Cc1ccccc1)NC(=O)[C@H](CC(=O)O)NC(=O)CCC(=O)O)C(N)=O (Suc-DF[NMeF][X3]M-NH2) | 360 | 100 | –
5 | CSCC[C@H](NC(=O)[C@H](CC(C)C)N/C(CNC(=O)[C@H](Cc1ccccc1)N(C)C(=O)[C@H](Cc1ccccc1)NC(=O)[C@H](CC(=O)O)NC(=O)CCC(=O)O)=N\O)C(N)=O (Suc-DF[NMeF][X4]M-NH2) | 1100 | 370 | –

Now from value to compound, other results behind:

Row | IC50 [1] [nM] | EC50 [10] [nM] | Structure (SMILES) | other results
6 | 22 | – | CSCC[C@H](NC(=O)[C@H](CC(C)C)NC(=O)CNC(=O)[C@H](Cc1ccccc1)N(C)C(=O)[C@H](Cc1ccccc1)NC(=O)[C@H](Cc1ccccc1)NC(=O)[C@H](CC(=O)O)NC(=O)[C@H](Cc1cnc[nH]1)NC(=O)[C@@H](N)CCSC)C(N)=O (H-MHDFF[NMeF]GLM-NH2) | EC50 [2]: 330 nM; inhibition [3]: 78%; inhibition [4]: 22%
7 | 56 | 16 | CSCC[C@H](NC(=O)[C@@H](/C=C/CNC(=O)[C@H](Cc1ccccc1)N(C)C(=O)[C@H](Cc1ccccc1)NC(=O)[C@H](CC(=O)O)NC(=O)CCC(=O)O)CC(C)C)C(N)=O (Suc-DF[NMeF][Glyψ(E-CHCH)Leu]M-NH2) | Time [6]: 92.1 min; EC50 [7]: 360 nM; EC50 [8]: 19 nM; EC50 [9]: 11 nM
8 | 13000 | 1900 | CSCC[C@H](NC(=O)/C(=C/CCNC(=O)[C@H](Cc1ccccc1)N(C)C(=O)[C@H](Cc1ccccc1)NC(=O)[C@H](CC(=O)O)NC(=O)CCC(=O)O)CC(C)C)C(N)=O (Suc-DF[NMeF][X2]M-NH2) | –
